From ChEMBL document CHEMBL5108059, “Discovery of 2-Methyl-2-(4-(2-methyl-8-(1H-pyrrolo[2,3-b]pyridin-6-yl)-1H-naphtho[1,2-d]imidazol-1-yl)phenyl)propanenitrile as a Novel PI3K/mTOR Inhibitor with Enhanced Antitumor Efficacy In Vitro and In Vivo” (J Med Chem, 2022)
Active and inactive are the calls of the source. The calls are words filed in the database; no cut-off is given here.

Tests used:
[1] = Toxicity in BALB/c nude mouse xenografted with human SW620 cells assessed as reduction in body weight at 15 to 60 mg/kg, IG administered daily for 30 days and measured every 2 days; assay type: organism-based, SW-620; details: in vivo, po, 720 h, dose 15-60 mg/kg, time 30 day
[2] = tested on: HeLa; assay: Induction of apoptosis in human HeLa cells assessed as viable cells at 0.15625 uM incubated for 36 hrs by Annexin V-FITC/PI staining based flow cytometric analysis (reference value: 96.14 %); assay type: functional; details: read-out: Activity
[3] = tested on: SW-620; assay: Inhibition of colony formation in human SW620 cells assessed as reduction in colony forming ability at 1.25 uM incubated for 15 days by crystal violet staining based analysis; assay type: functional; details: SW-620, 360 h, time 15 day
[4] = tested on: HeLa; assay: Induction of apoptosis in human HeLa cells assessed as late apoptotic cells at 0.625 uM incubated for 36 hrs by Annexin V-FITC/PI staining based flow cytometric analysis (reference value: 1.4 %); assay type: functional
[5] = AUC (0 to infinity) in Sprague-Dawley rat at 10 mg/kg, po measured for 24 hrs by LC-MS/MS analysis; assay type: ADME, organism-based; parameters: time 24 hrs, dose 10 mg/kg, route po; details: in vivo
[6] = target: T1, Phosphatidylinositol 4,5-bisphosphate 3-kinase catalytic subunit gamma isoform (Homo sapiens, UniProt P48736); assay: Inhibition of PI3Kgamma (unknown origin) using L-alpha-phosphatidylinositol as substrate incubated for 120 mins in presence of ATP by Kinase Glo luminescence assay
T1 sequence (P48736 whole entry, canonical isoform): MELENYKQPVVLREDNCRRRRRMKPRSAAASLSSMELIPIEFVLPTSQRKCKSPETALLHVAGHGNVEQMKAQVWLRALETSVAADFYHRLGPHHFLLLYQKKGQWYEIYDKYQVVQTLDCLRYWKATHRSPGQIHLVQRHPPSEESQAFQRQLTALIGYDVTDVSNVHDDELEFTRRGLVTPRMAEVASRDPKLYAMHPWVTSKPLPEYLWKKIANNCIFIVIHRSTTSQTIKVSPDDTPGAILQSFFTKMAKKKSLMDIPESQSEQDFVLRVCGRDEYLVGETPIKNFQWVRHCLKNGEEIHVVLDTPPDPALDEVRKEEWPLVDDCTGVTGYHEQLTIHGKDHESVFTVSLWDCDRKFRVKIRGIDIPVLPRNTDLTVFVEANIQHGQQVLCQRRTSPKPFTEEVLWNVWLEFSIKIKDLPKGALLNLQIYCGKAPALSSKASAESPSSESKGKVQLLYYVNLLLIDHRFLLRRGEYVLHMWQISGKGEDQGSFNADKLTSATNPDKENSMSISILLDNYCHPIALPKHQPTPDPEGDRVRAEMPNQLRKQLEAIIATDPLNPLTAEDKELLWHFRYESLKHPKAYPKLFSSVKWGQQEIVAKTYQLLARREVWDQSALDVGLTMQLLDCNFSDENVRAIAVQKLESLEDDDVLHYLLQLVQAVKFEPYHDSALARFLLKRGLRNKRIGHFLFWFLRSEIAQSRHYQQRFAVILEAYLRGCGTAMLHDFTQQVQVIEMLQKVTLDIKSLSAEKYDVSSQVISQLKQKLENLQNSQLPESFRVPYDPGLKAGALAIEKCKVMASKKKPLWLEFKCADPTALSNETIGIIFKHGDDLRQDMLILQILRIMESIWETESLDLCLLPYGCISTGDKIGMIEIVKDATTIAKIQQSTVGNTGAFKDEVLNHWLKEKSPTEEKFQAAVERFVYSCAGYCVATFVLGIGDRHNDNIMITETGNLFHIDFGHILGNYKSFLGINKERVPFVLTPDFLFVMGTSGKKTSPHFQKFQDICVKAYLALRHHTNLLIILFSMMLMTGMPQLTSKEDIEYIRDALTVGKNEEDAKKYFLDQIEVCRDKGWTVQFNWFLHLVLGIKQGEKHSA

[7] = tested on: Mus musculus; assay: In vivo inhibition of PI3K/mTOR signalling pathway in BALB/c nude mouse xenografted with human HeLa cells assessed as downregulation of pS6 protein expression in tumor at 15 to 60 mg/kg, IG administered daily for 30 days; assay type: functional, organism-based; details: dose 15-60 mg/kg, time 30.0 day
[8] = tested on: SW-620; assay: Antitumor activity against human SW620 cells xenografted in BALB/c nude mouse assessed as tumor growth inhibition at 15 mg/kg, IG administered daily for 30 days and measured every 2 days relative to control; assay type: functional; details: SW-620, po, 720 h, time 30 day, read-out: TGI
[9] = Toxicity in BALB/c nude mouse xenografted with human HeLa cells assessed as pathological changes in liver at 60 mg/kg, IG administered daily for 30 days by hematoxylin and eosin staining based microscopic analysis; assay type: organism-based; details: in vivo, po, 720 h, time 30 day
[10] = tested on: HeLa; assay: Induction of apoptosis in human HeLa cells assessed as viable cells at 0.625 uM incubated for 36 hrs by Annexin V-FITC/PI staining based flow cytometric analysis (reference value: 96.14 %); assay type: functional; details: read-out: Activity
[11] = tested on: HeLa; assay: Induction of apoptosis in human HeLa cells assessed as late apoptotic cells at 1.25 uM incubated for 36 hrs by Annexin V-FITC/PI staining based flow cytometric analysis (reference value: 1.4 %); assay type: functional
[12] = Toxicity in BALB/c nude mouse xenografted with human HeLa cells assessed as reduction in body weight at 15 to 60 mg/kg, IG administered daily for 30 days and measured every 2 days; assay type: organism-based; details: in vivo, po, 720 h, dose 15-60 mg/kg, time 30 day
[13] = tested on: SW-620; assay: Antitumor activity against human SW620 cells xenografted in BALB/c nude mouse assessed as tumor growth inhibition at 60 mg/kg, IG administered daily for 30 days and measured every 2 days relative to control; assay type: functional; details: SW-620, po, 720 h, time 30 day, read-out: TGI
[14] = tested on: HeLa; assay: Induction of apoptosis in human HeLa cells assessed as early apoptotic cells at 0.15625 uM incubated for 36 hrs by Annexin V-FITC/PI staining based flow cytometric analysis (reference value: 2.02 %); assay type: functional; details: 0.1562 µM
[15] = tested on: HeLa; assay: Antitumor activity against human HeLa cells xenografted in BALB/c nude mouse assessed as tumor growth inhibition at 60 mg/kg, IG administered daily for 30 days and measured every 2 days relative to control; assay type: functional; details: po, 720 h, time 30 day, read-out: TGI
[16] = target: T1, Phosphatidylinositol 4,5-bisphosphate 3-kinase catalytic subunit gamma isoform; assay: Inhibition of PI3Kgamma (unknown origin) using PIP2 as substrate incubated for 2 hrs in presence of ATP by Kinase Glo luminescence assay
[17] = tested on: SW-620; assay: Antitumor activity against human SW620 cells xenografted in BALB/c nude mouse assessed as tumor growth inhibition at 30 mg/kg, IG administered daily for 30 days and measured every 2 days relative to control; assay type: functional; details: SW-620, po, 720 h, time 30 day, read-out: TGI
[18] = tested on: HT-29; assay: Antiproliferative activity against human HT-29 cells with PIK3CA mutation assessed as inhibition of cell growth incubated for 48 to 72 hrs by MTT assay; assay type: functional, cell-based
[19] = Toxicity in BALB/c nude mouse xenografted with human HeLa cells assessed as pathological changes in spleen at 60 mg/kg, IG administered daily for 30 days by hematoxylin and eosin staining based microscopic analysis; assay type: organism-based; details: in vivo, po, 720 h, time 30 day
[20] = tested on: HeLa; assay: Inhibition of PI3K/mTOR signalling pathway in human HeLa cells assessed as inhibition of Akt phosphorylation at Ser473 residue incubated for 24 hrs by Western blot analysis; assay type: cell-based; details: dose 0.3125-2.5 µM, DDE = dose-dependent effect
[21] = tested on: SW-620; assay: Inhibition of colony formation in human SW620 cells assessed as reduction in colony forming ability incubated for 15 days by crystal violet staining based analysis; assay type: functional, cell-based; details: dose 0.15625-1.25 µM, time 15.0 day, DDE = dose-dependent effect
[22] = tested on: HeLa; assay: Inhibition of PI3K/mTOR signalling pathway in human HeLa cells assessed as inhibition of S6 protein phosphorylation incubated for 24 hrs by Western blot analysis; assay type: cell-based; details: dose 0.3125-2.5 µM, DDE = dose-dependent effect

Cc1nc2cnc3ccc(-c4cnc5[nH]ccc5c4)cc3c2n1-c1ccc(C(C)(C)C#N)nc1
Activity [1]: Non-Toxic | viability at 0.1562 µM [2]: 93.5% | inhibition at 1.25 µM [3]: 100% | Activity [4]: 8.81% | AUC [5]: 7620 ng·h/mL | IC50 [6]: 5 nM | inhibition [7]: Active | inhibition in vivo at 15 mg/kg [8]: 60.6% | Activity [9]: Non-Toxic | viability at 0.625 µM [10]: 70.1% | Activity [11]: 23.32% | Activity [12]: Non-Toxic | inhibition in vivo at 60 mg/kg [13]: 81% | Activity [14]: 4.18% | inhibition in vivo at 60 mg/kg [15]: 80.2% | IC50 [16]: 79.3 nM | inhibition in vivo at 30 mg/kg [17]: 70.8% | IC50 [18]: 250 nM | Activity [19]: Non-Toxic | inhibition [20]: Dde | inhibition [21]: Dde | inhibition [22]: Dde
